According to patent publication US8962608B2, “Cycloalkylnitrile pyrazole carboxamides as janus kinase inhibitors” (Merck Sharp & Dohme Corp., priority 2011, dated 2015):

Key:
[1] = target: JAK2 (recombinant purified GST-tagged catalytic domain) (Homo sapiens (Human), UniProt O60674); experiment: biochemical;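 note: biochemical JAK kinase assay with HTRF detection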
[2] = target: JAK1 (recombinant purified GST-tagged catalytic domain) (Homo sapiens (Human), UniProt P23458); experiment: biochemical;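 note: biochemical assay with HTRF read-out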
JAK1 (recombinant purified GST-tagged catalytic domain), sequence (P23458 875-1153): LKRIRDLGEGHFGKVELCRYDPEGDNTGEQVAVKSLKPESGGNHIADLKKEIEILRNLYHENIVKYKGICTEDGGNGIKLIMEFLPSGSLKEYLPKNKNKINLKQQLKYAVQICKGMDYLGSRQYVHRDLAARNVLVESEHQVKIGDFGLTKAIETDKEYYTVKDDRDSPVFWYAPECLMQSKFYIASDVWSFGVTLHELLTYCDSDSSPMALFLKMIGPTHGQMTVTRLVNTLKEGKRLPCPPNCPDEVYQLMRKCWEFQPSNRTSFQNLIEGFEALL

JAK2 (recombinant purified GST-tagged catalytic domain), sequence (O60674 849-1124): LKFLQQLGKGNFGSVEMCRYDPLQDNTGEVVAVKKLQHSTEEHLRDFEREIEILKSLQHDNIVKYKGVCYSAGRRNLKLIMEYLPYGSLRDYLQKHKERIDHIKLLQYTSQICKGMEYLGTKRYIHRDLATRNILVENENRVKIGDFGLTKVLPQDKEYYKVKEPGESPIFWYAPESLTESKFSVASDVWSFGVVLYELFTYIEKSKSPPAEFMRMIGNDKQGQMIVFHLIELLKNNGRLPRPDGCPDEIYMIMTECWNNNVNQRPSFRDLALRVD

Row | IC50 [1] [nM] | IC50 [2] [nM] | SMILES
1 | 23 | 0.4 | CC(C)(C)N[C@@H]1CC[C@H](n2cc(C(N)=O)c(Nc3ccc([C@H](O)C(F)(F)F)cc3)n2)[C@@H](C#N)C1 (single isomer, unassigned) [Example 28-52, 1-[(1S,2S,4R or 1R,2R,4S)-4-(tert-butylamino)-2-cyanocyclohexyl]-3-({4-[(1S or 1R)-2,2,2-trifluoro-1-hydroxyethyl]phenyl}amino)-1H-pyrazole-4-carboxamide]
2 | 4 | 1 | N#C[C@H]1CCCC[C@@H]1n1cc(C(N)=O)c(Nc2ccc(S(=O)(=O)NCc3ccc(Cl)cc3)cc2)n1 (single isomer, unassigned) [Example 17-90, 3-({4-[(4-chlorobenzyl)sulfamoyl]phenyl}amino)-1-[(1R,2R or 1S,2S)-2-cyanocyclohexyl]-1H-pyrazole-4-carboxamide]
3 | 13 | 2 | N#C[C@H]1CCCC[C@@H]1n1cc(C(N)=O)c(Nc2ccc(C(F)F)nc2)n1 (single isomer, unassigned) [Example 17-59, 1-[(1S,2S or 1R,2R)-2-cyanocyclohexyl]-3-{[6-(difluoromethyl)pyridin-3-yl]amino}-1H-pyrazole-4-carboxamide]
4 | 5 | 1 | N#C[C@H]1CCCC[C@@H]1n1cc(C(N)=O)c(Nc2ccc(S(=O)(=O)C(F)(F)F)c(CO)c2)n1 (racemic) [Example 17-17, 1-[(1S,2S and 1R,2R)-2-cyanocyclohexyl]-3-({3-(hydroxymethyl)-4-[(trifluoromethyl)sulfonyl]phenyl}amino)-1H-pyrazole-4-carboxamide]
5 | 19 | 3 | CS(=O)(=O)C1CN(C(=O)[C@@H]2CC[C@@H](n3cc(C(N)=O)c(Nc4ccc(Cl)cc4)n3)[C@H](C#N)C2)C1 (single isomer, unassigned) [Example 35-8, 3-[(4-chlorophenyl)amino]-1-[(1R,2R,4R or 1S,2S,4S)-2-cyano-4-{[3-(methylsulfonyl)azetidin-1-yl]carbonyl}cyclohexyl]-1H-pyrazole-4-carboxamide]
6 | 184 | 20 | CC(=O)O[C@H]1C[C@H](C#N)[C@@H](n2cc(C(N)=O)c(Nc3ccc(C(F)(F)F)cc3)n2)C[C@@H]1O [Example 41]
7 | 79 | 15 | N#C[C@H]1CC[C@H](O)CC1n1cc(C(N)=O)c(Nc2ccccc2)n1 (mixture of isomers) [Example 2-12, 1-[(1R,2R,5R and 1S,2S,5S)-2-cyano-5-hydroxycyclohexyl]-3-(phenylamino)-1H-pyrazole-4-carboxamide]
8 | 3 | 0.3 | N#C[C@H]1C[C@@H](NC2COC2)CC[C@@H]1n1cc(C(N)=O)c(Nc2ccc(CC(F)(F)F)cc2)n1 (single isomer, unassigned) [Example 28-79, 1-[(1S,2S,4S or 1R,2R,4R)-2-cyano-4-(oxetan-3-ylamino)cyclohexyl]-3-{[4-(2,2,2-trifluoroethyl)phenyl]amino}-1H-pyrazole-4-carboxamide]
9 | 56 | 2 | N#C[C@H]1C[C@H](NCc2ccccc2)CC[C@@H]1n1cc(C(N)=O)c(Nc2ccnc(F)c2)n1 (single isomer, unassigned) [Example 28-123, 1-[(1S,2S,4R or 1R,2R,4S)-4-(benzylamino)-2-cyanocyclohexyl]-3-[(2-fluoropyridm-4-yl)amino]-1H-pyrazole-4-carboxamide]
10 | 20 | 3 | CC(C)(O)[C@H]1CC[C@H](n2cc(C(N)=O)c(Nc3ccc(Cl)cc3)n2)[C@@H](C#N)C1 (single isomer, unassigned) [Example 36-2, 3-(4-chlorophenylamino)-1-((1R,2R,4R or 1S,2S,4S)-2-cyano-4-(2-hydroxypropan-2-yl)cyclohexyl)-1H-pyrazole-4-carboxamide]
11 | 77 | 3 | CC(C)(O)C1CN([C@H]2CC[C@H](n3cc(C(N)=O)c(Nc4ccc(C(F)(F)F)cc4)n3)[C@@H](C#N)C2)C1 (single isomer, unassigned) [Example 28-28, 1-{(1S,2S,4S or 1R,2R,4R)-2-cyano-4-[3-(1-hydroxy-1-methylethyl)azetidin-1-yl]cyclohexyl}-3-{[4-(trifluoromethyl)phenyl]amino}-1H-pyrazole-4-carboxamide]
12 | 23 | 0.7 | N#C[C@H]1C[C@@H](N2CCC2)CC[C@@H]1n1cc(C(N)=O)c(Nc2ccc(OC(F)(F)F)cc2)n1 (single isomer, unassigned) [Example 28-58, 1-[(1S,2S,4S or 1R,2R,4R)-4-azetidin-1-yl-2-cyanocyclohexyl]-3-{[4-(trifluoromethoxy)phenyl]amino}-1H-pyrazole-4-carboxamide]
13 | 1 | 0.33 | N#C[C@@H]1CCCC[C@H]1n1cc(C(N)=O)c(Nc2ccc(S(=O)(=O)NCC3CC3)cc2)n1 (single isomer, unassigned) [Example 17-66, 1-[(1R,2R or 1S,2S)-2-cyanocyclohexyl]-3-({4-[(cyclopropylmethyl)sulfamoyl]phenyl}amino)-1H-pyrazole-4-carboxamide]
14 | 320 | 170 | N#C[C@H]1CCC[C@H](O)C1n1cc(C(N)=O)c(Nc2ccccc2)n1 (mixture of isomers) [Example 2-7, 1-[(1R,2S,6S and 1S,2R,6R)-2-cyano-6-hydroxycyclohexyl]-3-(phenylamino)-1H-pyrazole-4-carboxamide]
15 | 9 | 3 | N#C[C@@H]1CCCC[C@H]1n1cc(C(N)=O)c(Nc2ccc(S(=O)(=O)Nc3ccccn3)cc2)n1 (single isomer, unassigned) [Example 17-67, 1-[(1R,2R or 1S,2S)-2-cyanocyclohexyl]-3-{[4-(pyridin-2-ylsulfamoyl)phenyl]amino}-1H-pyrazole-4-carboxamide]
16 | 164 | 5 | N#C[C@H]1C[C@@H](OC(=O)NC2CCCCC2)CCC1n1cc(C(N)=O)c(Nc2ccc(F)cc2)n1 (mixture of isomers) [Example 34-2, (1S,3S,4S and 1R,3R,4R)-4-{4-carbamoyl-3-[(4-fluorophenyl)amino]-1H-pyrazol-1-yl}-3-cyanocyclohexyl cyclohexylcarbamate]
17 | 9 | 0.3 | CC(=O)c1ccc(Nc2nn([C@H]3CC[C@H](N4CCC4)C[C@@H]3C#N)cc2C(N)=O)cc1 (single isomer, unassigned) [Example 28-84, 3-[(4-acetylphenyl)amino]-1-[(1S,2S,4S or 1R,2R,4R)-4-azetidin-1-yl-2-cyanocyclohexyl]-1H-pyrazole-4-carboxamide]
18 | 59 | 13 | N#C[C@H]1C[C@@](O)(C2CC2)CC[C@@H]1n1cc(C(N)=O)c(Nc2ccc(Cl)c(F)c2)n1 (single isomer, unassigned) [Example 32-1, 3-[(4-Chloro-3-fluorophenyl)amino]-1-[(1S,2S,4S or 1R,2R,4R)-2-cyano-4-cyclopropyl-4-hydroxycyclohexyl]-1H-pyrazole-4-carboxamide]

Row | SMILES | IC50 [1] [nM] | IC50 [2] [nM]
19 | N#C[C@H]1C[C@H](N2CCC2)CC[C@@H]1n1cc(C(N)=O)c(Nc2ccc(C(F)(F)F)cc2)n1 (single isomer, unassigned) [Example 28-131, 1-[(1S,2S,4R or 1R,2R,4S)-4-azetidin-1-yl-2-cyanocyclohexyl]-3-{[4-(trifluoromethyl)phenyl]amino}-1H-pyrazole-4-carboxamide] | 51 | 0.9
